pIC50: −log10 of the molar value. Where two headings read alike, the source gives them in different places.
Tested on: IL-1β cytokine output from THP-1s
Test: THP-1 AlphaLISA IL-1β cytokine assay
Format: cell-based, human
Experimental: Measuring Inhibitory Effects on IL-1β and IL-6 Cytokine Output from THP-1s
The cytokine inhibition profiles of compounds of formula (IW-1) were determined in a differentiated THP-1 cell assay. All assays were performed in RPMI-1640 growth medium (Gibco), supplemented with 10% fetal bovine serum (FBS; Gibco), 1% penicillin-streptomycin and 1% sodium pyruvate unless specified otherwise. The IL-1β and IL-6 cytokine inhibition assays were each run in a background of differentiated THP-1 cells as described below. All reagents described were from Sigma-Aldrich unless specified otherwise. Compounds were prepared as 10 mM DMSO stocks.
THP-1 cells were expanded as a suspension up to 80% confluence in appropriate growth medium. Cells were harvested, suspended, and treated with an appropriate concentration of phorbol 12-myristate 13-acetate (PMA) over a 72 hr period (37° C./5% CO2).
Following 72 hrs of THP-1 cell incubation, cellular medium was removed and replaced with fresh growth media containing 1% of FBS. Working concentrations of compounds were prepared separately in 10% FBS treated growth medium and pre-incubated with the cells for 30 minutes (37° C./5% CO2). Following the 30 minute compound pre-incubation, THP-1s were treated with an appropriate concentration of LPS and the THP-1s were subsequently incubated for a 24 hr period (37° C./5% CO2). An appropriate final concentration of Nigericin was then dispensed into the THP-1 plates and incubated for 1 hour (37° C./5% CO2) before THP-1 supernatants were harvested and collected in separate polypropylene 96-well holding plates.
Reagents from each of the IL-1β and IL-6 commercial kits (Perkin Elmer) were prepared and run according to the manufacturer's instructions. Subsequently, fluorescence signal detection in a microplate reader was measured (EnVision® Multilabel Reader, Perkin Elmer).
Percentage inhibition was calculated per cytokine by normalising the sample data to the high and low controls used within each plate (+/−LPS respectively). Percentage inhibition was then plotted against compound concentration and the 50% inhibitory concentration (IC50) was determined from the resultant concentration-response curve.

[1] = Homo sapiens, THP-1, PMA-differentiated THP-1 cells, LPS 24 hr then Nigericin 1 hour, read-out: IL-1β (IC50)
[2] = Homo sapiens, THP-1, read-out: IL-1β (IC50)
[3] = Homo sapiens, PMA-differentiated THP-1 cells, LPS 24 hr then Nigericin 1 hour, read-out: IL-1β (IC50)

Compound	pIC50 [1]	other results
C=C(CC(=O)OC(C)c1cc(Cl)cc(Cl)c1)C(=O)OCC(=O)O (single isomer, unassigned; isomer 1) [Example 198, 2-((4-(1-(3,5-dichlorophenyl)ethoxy)-2-methylene-4-oxobutanoyl)oxy)acetic acid (Isomer 1)]	4.66	
C=C(CC(=O)OC(C)c1cc(Cl)cc(Cl)c1)C(=O)OCC(=O)O (single isomer, unassigned; isomer 2) [Example 199, 2-((4-(1-(3,5-dichlorophenyl)ethoxy)-2-methylene-4-oxobutanoyl)oxy)acetic acid (Isomer 2)]		pIC50 (PMA-differentiated THP-1 cells, LPS 24 hr then Nigericin 1 hour, read-out: IL-1β (IC50)): 4.74
C=C(CC(=O)OC1CCCCCCC1)C(=O)O[C@@H](C)[C@@H](NC(C)=O)C(=O)O (stereo in doubt) [Example 136, (2R,3S)-2-acetamido-3-((4-(cyclooctyloxy)-2-methylene-4-oxobutanoyl)oxy)butanoic acid]	4.27	
C=C(CC(=O)OCCCCCCCC)C(=O)OC1CCOCC1 [Example 26, 4-octyl 1-(tetrahydro-2H-pyran-4-yl) 2-methylenesuccinate]	4.79	
C=C(CC(=O)OC1CCCCC1)C(=O)OC1CN(C(C)=O)C1 [Example 74, 1-(1-acetylazetidin-3-yl) 4-cyclohexyl 2-methylenesuccinate]	5.38	
C=C(CC(=O)OCCCCCC)C(=O)OC1CCN(S(C)(=O)=O)CC1 [Example 76, 4-hexyl 1-(1-(methylsulfonyl)piperidin-4-yl) 2-methylenesuccinate]	5.39	
C=C(CC(=O)OCCCCCC)C(=O)OCCN1CCCC1=O [Example 77, 4-hexyl 1-(2-(2-oxopyrrolidin-1-yl)ethyl) 2-methylenesuccinate]	4.84	
C=C(CC(=O)OC1CCCCCCC1)C(=O)OCC(=O)N(C)CC(=O)O [Example 103, N-(2-((4-(cyclooctyloxy)-2-methylene-4-oxobutanoyl)oxy)acetyl)-N-methylglycine]	4.26	
C=C(CC(=O)OC1CCCCCCC1)C(=O)OCC(=O)N1CCC[C@H]1C(=O)O [Example 104, (2-((4-(cyclooctyloxy)-2-methylene-4-oxobutanoyl)oxy)acetyl)-L-proline]	4.84	
C=C(CC(=O)O[C@@H](C)CCCCCC)C(=O)OCC(=O)N(C)CC(=O)O [Example 105, (S)-N-methyl-N-(2-((2-methylene-4-(octan-2-yloxy)-4-oxobutanoyl)oxy)acetyl)glycine]	4.55	
C=C(CC(=O)O[C@@H](C)CCCCCC)C(=O)OCC(=O)NCC(=O)O [Example 106, (S)-(2-((2-methylene-4-(octan-2-yloxy)-4-oxobutanoyl)oxy)acetyl)glycine]	4.81	
C=C(CC(=O)OC1CCCCC1)C(=O)OC(C(=O)O)C(F)(F)F (centres unmarked) [Example 121, 2-((4-(cyclohexyloxy)-2-methylene-4-oxobutanoyl)oxy)-3,3,3-trifluoropropanoic acid]	4.27	
C=C(CC(=O)OC1CCCCC1)C(=O)OC/C=C/C(=O)O [Example 123, (E)-4-((4-(cyclohexyloxy)-2-methylene-4-oxobutanoyl)oxy)but-2-enoic acid]		pIC50 [2]: 4.71
C=C(CC(=O)OC1CCCCC1)C(=O)OCCS(=O)(=O)CCC(=O)O [Example 124, 3-((2-((4-(cyclohexyloxy)-2-methylene-4-oxobutanoyl)oxy)ethyl)sulfonyl)propanoic acid]		pIC50 [3]: 4.28
C=C(CC(=O)OCC(=O)O)C(=O)OCCS(=O)(=O)c1cccc(Cl)c1 [Example 126, 2-((3-((2-((3-chlorophenyl)sulfonyl)ethoxy)carbonyl)but-3-enoyl)oxy)acetic acid]		pIC50 [2]: 6.15
C=C(CC(=O)OC1CCCCC1)C(=O)O[C@@H](C(=O)O)c1ccccc1 [Example 127, (R)-2-((4-(cyclohexyloxy)-2-methylene-4-oxobutanoyl)oxy)-2-phenylacetic acid]	4.35	
C=C(CC(=O)OC1CCCCCCC1)C(=O)OCC(C)(C)S(=O)(=O)c1cccc(Cl)c1 [Example 131, 1-(2-((3-chlorophenyl)sulfonyl)-2-methylpropyl) 4-cyclooctyl 2-methylenesuccinate]	5.36	
C=C(CC(=O)OC1CCCCCCC1)C(=O)OCC(C)(C)S(C)(=O)=O [Example 132, 4-cyclooctyl 1-(2-methyl-2-(methylsulfonyl)propyl) 2-methylenesuccinate]	5.37	
C=C(CC(=O)O[C@H](C)CCCCCC)C(=O)OC(C)Cc1nnn[nH]1 (stereo partly drawn) [Example 140, 1-(1-(1H-tetrazol-5-yl)propan-2-yl) 4-((R)-octan-2-yl) 2-methylenesuccinate]	5.11	

Compound	pIC50 [1]	other results
C=C(CC(=O)O[C@@H](C)CCCCCC)C(=O)OC(C)Cc1nnn[nH]1 (stereo partly drawn) [Example 141, 1-(1-(1H-tetrazol-5-yl)propan-2-yl) 4-((S)-octan-2-yl) 2-methylenesuccinate]	5.19	
C=C(CC(=O)OC1CCCCC1)C(=O)OCc1nnn(C)n1 [Example 142, 4-cyclohexyl 1-((2-methyl-2H-tetrazol-5-yl)methyl) 2-methylenesuccinate]	5.21	
C=C(CC(=O)OC1CCCCC1)C(=O)OCc1nnnn1C [Example 143, 4-cyclohexyl 1-((1-methyl-1H-tetrazol-5-yl)methyl) 2-methylenesuccinate]	5.70	
C=C(CC(=O)OC(CC)CCCCC)C(=O)OCC(=O)O (centres unmarked) [Example 146, 2-(2-methylene-4-(octan-3-yloxy)-4-oxobutanoyloxy)acetic acid]	5.07	
C=C(CC(=O)OC(CCC)CCCC)C(=O)OCC(=O)O (centres unmarked) [Example 147, 2-(2-methylene-4-(octan-4-yloxy)-4-oxobutanoyloxy)acetic acid]	4.87	
C=C(CC(=O)OC(CCC)CCC)C(=O)OCC(=O)O [Example 148, 2-((4-(heptan-4-yloxy)-2-methylene-4-oxobutanoyl)oxy)acetic acid]	4.53	
C=C(CC(=O)OC1C2CC3CC(C2)CC1C3)C(=O)OCC(=O)O (centres unmarked) [Example 149, 2-((4-((adamantan-2-yl)oxy)-2-methylene-4-oxobutanoyl)oxy)acetic acid]	4.92	
C=C(CC(=O)OC(C)C1CCCCC1)C(=O)OCC(=O)O (centres unmarked) [Example 150, 2-((4-(1-cyclohexylethoxy)-2-methylene-4-oxobutanoyl)oxy)acetic acid]	4.93	
C=C(CC(=O)OC(C)C1CCCCCC1)C(=O)OCC(=O)O (centres unmarked) [Example 151, 2-((4-(1-cycloheptylethoxy)-2-methylene-4-oxobutanoyl)oxy)acetic acid]	4.99	
C=C(CC(=O)OC1CC2(CCCC2)C1)C(=O)OCC(=O)O [Example 152, 2-(2-methylene-4-oxo-4-(spiro[3.4]octan-2-yloxy)butanoyloxy)acetic acid]	4.99	
C=C(CC(=O)OC1CC2(CCCCC2)C1)C(=O)OCC(=O)O [Example 153, 2-(2-methylene-4-oxo-4-(spiro[3.5]nonan-2-yloxy)butanoyloxy)acetic acid]	5.15	
C=C(CC(=O)OC1CCC2(CCC2)CC1)C(=O)OCC(=O)O [Example 154, 2-(2-methylene-4-oxo-4-(spiro[3.5]nonan-7-yloxy)butanoyloxy)acetic acid]	5.08	
C=C(CC(=O)OC1CCCCC1(C)C)C(=O)OCC(=O)O (centres unmarked) [Example 155, 2-((4-((2,2-dimethylcyclohexyl)oxy)-2-methylene-4-oxobutanoyl)oxy)acetic acid]	4.78	
C=C(CC(=O)O[C@@H](C)CCCCCC)C(=O)OC(c1nn[nH]n1)C1CC1 (stereo partly drawn) [Example 166, 1-(cyclopropyl(1H-tetrazol-5-yl)methyl) 4-((S)-octan-2-yl) 2-methylenesuccinate]	4.17	
C=C(CC(=O)OC1CCCCC1)C(=O)OC1CCCCC1 [Example 167, dicyclohexyl 2-methylenesuccinate]		pIC50 [3]: 4.54
C=C(C(=O)OCC(=O)O)C(C)C(=O)OC1CCCCCCC1 (centres unmarked) [Example 168, 2-((4-(cyclooctyloxy)-3-methyl-2-methylene-4-oxobutanoyl)oxy)acetic acid]	4.31	
C=C(C(=O)OCC(=O)O)C(OC)C(=O)OC1CCCCCCC1 (centres unmarked) [Example 171, 2-((4-(cyclooctyloxy)-3-methoxy-2-methylene-4-oxobutanoyl)oxy)acetic Acid]		pIC50 [3]: 4.66
C=C(CC(=O)O[C@H](C)CCCCC)C(=O)OCC(=O)O [Example 173, (R)-2-((4-(heptan-2-yloxy)-2-methylene-4-oxobutanoyl)oxy)acetic acid]	4.56	
C=C(CC(=O)OC(C)CCCCCCC)C(=O)OCC(=O)O (centres unmarked) [Example 174, 2-((2-methylene-4-(nonan-2-yloxy)-4-oxobutanoyl)oxy)acetic acid]	4.96	
